{
  "source": "patent US10676478B2",
  "about": "“7-(thiazol-5-yl) pyrrolopyrimidine compound as TLR7 agonist” (CHIA TAI TIANQING PHARMACEUTICAL GROUP CO., LTD., priority 2015, dated 2020)",
  "key": {"[1]": {"target": "T1, Toll-like receptor 8 (HEK-blue hTLR8 cell) (Homo sapiens, UniProt Q9NR97)", "T1 construct": "host or cells: HEK-blue hTLR8 cell (HEK293-derived reporter line)", "T1 sequence (Q9NR97 27-1041)": "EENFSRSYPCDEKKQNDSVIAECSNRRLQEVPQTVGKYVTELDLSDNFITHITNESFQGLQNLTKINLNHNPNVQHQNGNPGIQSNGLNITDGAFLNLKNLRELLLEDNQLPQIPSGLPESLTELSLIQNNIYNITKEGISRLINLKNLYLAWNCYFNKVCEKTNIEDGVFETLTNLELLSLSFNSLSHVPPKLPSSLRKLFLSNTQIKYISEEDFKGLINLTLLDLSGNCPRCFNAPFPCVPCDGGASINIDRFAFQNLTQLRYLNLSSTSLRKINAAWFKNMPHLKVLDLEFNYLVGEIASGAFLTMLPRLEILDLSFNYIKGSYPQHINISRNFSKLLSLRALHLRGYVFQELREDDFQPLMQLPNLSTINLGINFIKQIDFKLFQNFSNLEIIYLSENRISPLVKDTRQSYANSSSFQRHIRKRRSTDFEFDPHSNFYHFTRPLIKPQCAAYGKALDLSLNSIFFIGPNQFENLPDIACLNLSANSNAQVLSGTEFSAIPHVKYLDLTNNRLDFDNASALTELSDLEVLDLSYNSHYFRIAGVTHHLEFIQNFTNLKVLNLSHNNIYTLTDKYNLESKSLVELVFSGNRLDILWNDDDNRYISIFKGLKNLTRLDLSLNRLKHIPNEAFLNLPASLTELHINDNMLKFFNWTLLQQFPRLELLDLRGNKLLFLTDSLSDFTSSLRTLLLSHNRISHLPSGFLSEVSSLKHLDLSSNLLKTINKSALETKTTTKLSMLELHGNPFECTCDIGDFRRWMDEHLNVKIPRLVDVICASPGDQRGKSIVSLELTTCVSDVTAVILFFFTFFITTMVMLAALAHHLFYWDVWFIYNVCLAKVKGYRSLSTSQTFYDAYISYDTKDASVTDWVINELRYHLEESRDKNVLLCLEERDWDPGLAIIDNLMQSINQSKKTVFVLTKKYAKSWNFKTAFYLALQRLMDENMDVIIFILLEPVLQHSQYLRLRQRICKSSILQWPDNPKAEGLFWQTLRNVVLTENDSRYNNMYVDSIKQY", "test": "Toll-like receptor 8 in vitro receptor binding activity (HEK-blue hTLR8 cell, Quanti-Blue alkaline phosphatase reporter)", "assay_type": "cell-based", "details": "24 h incubation, read-out: TLR8 EC50", "experimental": "(§1) Experimental Example 1: Toll-Like Receptor 7 and Toll-Like Receptor 8 In Vitro Receptor Binding Activity\n(§2) HEK-blue hTLR7 cell and HEK-blue hTLR8 cell (available from InvivoGen)\n(§3) The GS-9620 and R848 used have the following structures. GS-9620 can be prepared according the process disclosed in US20100143301; R848 is purchased from ABGENT (Catalog: IMG-2208, 0.5 mg).\n(§4) The compounds were gradient diluted with DMSO in 3-fold using liquid work station POD starting at a concentration of 10 mmol/L and 10 points were diluted (2nd column to 11th column, and each point was duplicated). At 12th column, 1 μL of 5 mg/mL positive compound R848 was added as positive control; and at 1 st column, 1 μL of DMSO was added as negative control. Each well contained 1 μL of DMSO.\n(§5) 2. The cells in cell culture flask were collected and the cell density was diluted to 250,000 cells/mL.\n(§6) 3. 200 μL (50,000 cells/well) of cell suspension was added into prepared compound plate and the final concentration of DMSO in each well was 0.5%.\n(§7) 4. The culture plates containing cells and the compounds were incubated in CO2 incubator for 24 h at 37° C., 5% CO2.\n(§8) 5. After 24 h incubation, 20 μL of supernatant was removed from each well of the cell culture plates to a 96-well transparent assay plate. […]\n(§9) 6. After 1 h, the content of alkaline phosphatase in 20 μL of supernatant was determined using Microplate Reader at OD650. […]"}, "[2]": {"test": "Pharmacokinetics assay in rat", "assay_type": "in vivo, SD rats", "set-up": "Mean plasma drug concentration: unit not given here", "details": "for Cmax: read-out: C0 or Cmax; for half-life: read-out: T½ (converted)", "experimental": "Experimental Example 2: Pharmacokinetics Assay in Rat\n12 male SD rats were divided into 4 groups with 3 SD rats in each group. 2 groups of animals were administered by intravenous injection (IV) 1 mg/kg of the control Toll-like receptor 7 agonist GS-9620 and Example 1 compound as 10% hydroxypropyl-β-cyclodextrin aqueous solution (concentration is 0.5 mg/mL), respectively. The other 2 groups were administered orally (PO) 5 mg/kg of GS-9620 and 3 mg/kg of Example 1 compound as 0.5% methylcellulose/0.2% Tween 80 pure water suspension (concentration is 1 mg/mL). […] Each rat with oral administration was collected for whole blood samples which were prepared into plasma 15, 30 min and 1, 2, 4, 8, 24 h continuously after administration. The plasma concentrations of GS-9620 and Example 1 compound were determined with LC-MS/MS."}, "[3]": {"target": "T2, Toll-like receptor 7 (HEK-blue hTLR7 cell) (Homo sapiens, UniProt Q9NYK1)", "T2 construct": "host or cells: HEK-blue hTLR7 cell (HEK293-derived reporter line)", "T2 sequence (Q9NYK1 27-1049)": "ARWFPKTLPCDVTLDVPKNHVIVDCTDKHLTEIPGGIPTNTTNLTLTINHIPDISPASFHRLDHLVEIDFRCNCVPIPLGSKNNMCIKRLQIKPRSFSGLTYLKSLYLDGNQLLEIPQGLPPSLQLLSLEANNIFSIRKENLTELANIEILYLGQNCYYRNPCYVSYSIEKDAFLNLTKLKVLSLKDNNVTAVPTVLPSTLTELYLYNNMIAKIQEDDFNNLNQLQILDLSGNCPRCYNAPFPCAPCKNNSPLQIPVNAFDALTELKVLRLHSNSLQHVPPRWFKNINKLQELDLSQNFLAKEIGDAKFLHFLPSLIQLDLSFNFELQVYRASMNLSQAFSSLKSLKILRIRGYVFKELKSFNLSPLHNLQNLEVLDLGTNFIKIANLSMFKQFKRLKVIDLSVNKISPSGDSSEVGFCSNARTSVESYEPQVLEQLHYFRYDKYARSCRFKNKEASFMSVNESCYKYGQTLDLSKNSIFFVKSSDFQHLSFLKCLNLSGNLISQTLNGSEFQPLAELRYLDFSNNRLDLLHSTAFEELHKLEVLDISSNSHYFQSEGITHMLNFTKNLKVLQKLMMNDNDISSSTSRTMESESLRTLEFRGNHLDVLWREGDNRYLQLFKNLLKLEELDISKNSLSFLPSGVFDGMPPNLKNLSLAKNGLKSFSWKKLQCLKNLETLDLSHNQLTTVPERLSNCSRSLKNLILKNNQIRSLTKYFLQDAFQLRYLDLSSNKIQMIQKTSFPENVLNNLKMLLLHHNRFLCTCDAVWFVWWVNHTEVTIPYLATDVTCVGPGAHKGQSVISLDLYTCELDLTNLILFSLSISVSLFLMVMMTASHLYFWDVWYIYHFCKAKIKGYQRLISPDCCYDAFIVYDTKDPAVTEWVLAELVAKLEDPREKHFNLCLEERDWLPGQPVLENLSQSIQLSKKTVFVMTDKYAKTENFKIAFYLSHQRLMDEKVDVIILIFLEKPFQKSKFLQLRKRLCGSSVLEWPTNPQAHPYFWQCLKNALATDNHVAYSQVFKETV", "test": "Toll-like receptor 7 in vitro receptor binding activity (HEK-blue hTLR7 cell, Quanti-Blue alkaline phosphatase reporter)", "assay_type": "cell-based", "details": "24 h incubation, read-out: TLR7 EC50", "experimental": "as §1, §2, §3, §4, §5, §6, §7, §8, §9"}, "[4]": {"details": "male, SD, plasma, 1 mg/kg, IV 1 mpk"}, "[5]": {"details": "male, SD, plasma, 3 mg/kg, PO 3 mpk"}},
  "note": "Read-outs that look alike come from different tables or passages of the source.",
  "data": [
    {"smiles": "CCCCOc1nc(N)c2[nH]cc(Cc3cnc(CN4CCCC4)s3)c2n1", "note": "[Example 1, 2-butoxy-7-((2-(pyrrolidin-1-ylmethyl)thiazol-5-yl)methyl)-5H-pyrrolo[3,2-d]pyrimidin-4-amine]", "values": [
      {"measurement": "EC50", "setting": "[1]", "value": 29.3, "unit": "µM"},
      {"measurement": "Mean plasma drug concentration", "setting": "[2]; IV 1 mpk, time 0.083 h", "value": 500},
      {"measurement": "Mean plasma drug concentration", "setting": "[2]; IV 1 mpk, time 0.25 h", "value": 277},
      {"measurement": "Mean plasma drug concentration", "setting": "[2]; IV 1 mpk, time 0.5 h", "value": 197},
      {"measurement": "Mean plasma drug concentration", "setting": "[2]; IV 1 mpk, time 1 h", "value": 120},
      {"measurement": "Mean plasma drug concentration", "setting": "[2]; IV 1 mpk, time 2 h", "value": 66.1},
      {"measurement": "Mean plasma drug concentration", "setting": "[2]; IV 1 mpk, time 4 h", "value": 30.6},
      {"measurement": "Mean plasma drug concentration", "setting": "[2]; IV 1 mpk, time 8 h", "value": 13.1},
      {"measurement": "Mean plasma drug concentration", "setting": "[2]; PO 3 mpk, time 0.25 h", "value": 45.4},
      {"measurement": "Mean plasma drug concentration", "setting": "[2]; PO 3 mpk, time 0.5 h", "value": 52.0},
      {"measurement": "Mean plasma drug concentration", "setting": "[2]; PO 3 mpk, time 1 h", "value": 86.8},
      {"measurement": "Mean plasma drug concentration", "setting": "[2]; PO 3 mpk, time 2 h", "value": 113},
      {"measurement": "Mean plasma drug concentration", "setting": "[2]; PO 3 mpk, time 4 h", "value": 23.6},
      {"measurement": "Mean plasma drug concentration", "setting": "[2]; PO 3 mpk, time 8 h", "value": 5.64},
      {"measurement": "AUC(0-inf)", "setting": "[2]; [4]", "value": 0.573, "unit": "µM·h"},
      {"measurement": "AUC(0-t)", "setting": "[2]; [4]", "value": 0.541, "unit": "µM·h"},
      {"measurement": "clearance", "setting": "[2]; [4]", "value": 75.8, "unit": "mL/min/kg"},
      {"measurement": "Cmax", "setting": "[2]; [4]", "value": 673, "unit": "nM"},
      {"measurement": "half-life", "setting": "[2]; [4]", "value": 3.08, "unit": "h"},
      {"measurement": "Vd", "setting": "[2]; male, SD, plasma, 1 mg/kg, IV 1 mpk, read-out: Vdss", "value": 13.5, "unit": "L/kg"},
      {"measurement": "AUC(0-inf)", "setting": "[2]; [5]", "value": 0.325, "unit": "µM·h"},
      {"measurement": "AUC(0-t)", "setting": "[2]; [5]", "value": 0.313, "unit": "µM·h"},
      {"measurement": "Cmax", "setting": "[2]; [5]", "value": 148, "unit": "nM"},
      {"measurement": "half-life", "setting": "[2]; [5]", "value": 1.54, "unit": "h"},
      {"measurement": "EC50", "setting": "[3]", "value": 0.454, "unit": "µM"}
    ]},
    {"smiles": "CCCCOc1nc(N)c2c(n1)N(Cc1cccc(CN3CCCC3)c1)CC(=O)N2", "note": "[GS-9620, reference compound]", "values": [
      {"measurement": "Mean plasma drug concentration", "setting": "[2]; IV 1 mpk, time 0.083 h", "value": 170},
      {"measurement": "Mean plasma drug concentration", "setting": "[2]; IV 1 mpk, time 0.25 h", "value": 102},
      {"measurement": "Mean plasma drug concentration", "setting": "[2]; IV 1 mpk, time 0.5 h", "value": 65.4},
      {"measurement": "Mean plasma drug concentration", "setting": "[2]; IV 1 mpk, time 1 h", "value": 48.1},
      {"measurement": "Mean plasma drug concentration", "setting": "[2]; IV 1 mpk, time 2 h", "value": 21.6},
      {"measurement": "Mean plasma drug concentration", "setting": "[2]; IV 1 mpk, time 4 h", "value": 13},
      {"measurement": "Mean plasma drug concentration", "setting": "[2]; IV 1 mpk, time 8 h", "value": 4.17},
      {"measurement": "Mean plasma drug concentration", "setting": "[2]; PO 5 mpk, time 0.25 h", "value": 56.3},
      {"measurement": "Mean plasma drug concentration", "setting": "[2]; PO 5 mpk, time 0.5 h", "value": 33.2},
      {"measurement": "Mean plasma drug concentration", "setting": "[2]; PO 5 mpk, time 1 h", "value": 83.4},
      {"measurement": "Mean plasma drug concentration", "setting": "[2]; PO 5 mpk, time 2 h", "value": 136},
      {"measurement": "Mean plasma drug concentration", "setting": "[2]; PO 5 mpk, time 4 h", "value": 16.7},
      {"measurement": "Mean plasma drug concentration", "setting": "[2]; PO 5 mpk, time 8 h", "value": 9.49}
    ]}
  ]
}
